Measured values: patent US20230174660A1, “USE OF A MULTIMERIC ANTI-DR5 BINDING MOLECULE IN COMBINATION WITH A CANCER THERAPY FOR TREATING CANCER” (IGM Biosciences, Inc., priority 2020, published 2023)
Read-outs that look alike come from different tables or passages of the source.

Assays:
Toledo = assay: Cell Titer Glo viability, Mab A + chemotherapeutic/targeted agent (Example 9); assay type: cell-based; conditions: combination with Mab A; Toledo (NHL); 72 hours
WSU-DLCL2 = assay: as above; assay type: cell-based; conditions: 72 hours; for Average Bliss score: combination with Mab A, WSU-DLCL2 (NHL)
Karpas-422 = assay: as above; assay type: cell-based; conditions: combination with Mab A; Karpas-422 (NHL); 72 hours
[1] = system: primary human hepatocytes; assay: as above; assay type: cell-based; conditions: 72 hours
U-937 [2] = system: U-937
DOHH-2 = assay: Cell Titer Glo viability, Mab A + chemotherapeutic/targeted agent (Example 9); conditions: combination with Mab A; DOHH-2 (NHL); 72 hours
OCI-LY7 = assay: as above; conditions: combination with Mab A; OCI-LY7 (NHL); 72 hours
U-937 [3] = assay: as above; conditions: 72 hours; for Average Bliss score: combination with Mab A, U-937 (NHL)
EBC-1 = assay: Cell Titer Glo viability, Mab A + SMAC mimetics (Example 13); assay type: cell-based; conditions: SMAC mimetic in combination with Mab A
Experimental: (§1) Synergy was determined as described in earlier examples. The average Bliss synergy scores for combinations of Mab A and SMAC mimetic on the various tumor cell lines are shown in Table 15.

HCT 116 = assay: as above; assay type: cell-based; conditions: SMAC mimetic in combination with Mab A
Experimental: as §1

HT 1080 = assay: as above; assay type: cell-based; conditions: SMAC mimetic in combination with Mab A
Experimental: as §1

OVCAR-4 = assay: as above; assay type: cell-based; conditions: SMAC mimetic in combination with Mab A
Experimental: as §1

SK-MEL-5 = assay: as above; assay type: cell-based; conditions: SMAC mimetic in combination with Mab A
Experimental: as §1

SW1353 = assay: as above; assay type: cell-based; conditions: SMAC mimetic in combination with Mab A
Experimental: as §1

[4] = system: DR5 agonist-resistant MDA-MB-231 cells; assay: Cell Titer Glo viability, Mab A + SMAC mimetic on DR5 agonist-resistant tumor cells (Example 8); assay type: cell-based
MDA-MB-231 tumor cells = assay: Cell Titer Glo viability, Mab A + SMAC mimetic (Example 7); conditions: MDA-MB-231 cells; 72 hours
NCIH460 = assay: Cell Titer Glo viability, Mab A + chemotherapeutic agent, Bliss synergy (Example 1); assay type: cell-based; conditions: combination with anti-DR5 IgM Mab A; NCIH460, Lung, Non-small cell; 72 hours
HCT15 = assay: as above; assay type: cell-based; conditions: combination with anti-DR5 IgM Mab A; HCT15, Colorectal adenocarcinoma; 72 hours
NCIN87 = assay: as above; assay type: cell-based; conditions: combination with anti-DR5 IgM Mab A; NCIN87, Gastric Adenocarcinoma, tubular; 72 hours
PANC1 = assay: as above; assay type: cell-based; conditions: combination with anti-DR5 IgM Mab A; PANC1, Pancreas Ductal Adenocarcinoma, exocrine; 72 hours
UMUC3 = assay: as above; assay type: cell-based; conditions: combination with anti-DR5 IgM Mab A; UMUC3, Bladder Transitional Cell Carcinoma; 72 hours
SNU5 = assay: as above; assay type: cell-based; conditions: combination with anti-DR5 IgM Mab A; SNU5, Gastric Adenocarcinoma; 72 hours
NCIH2228 = assay: as above; assay type: cell-based; conditions: combination with anti-DR5 IgM Mab A; NCIH2228, Lung, Non-small cell; 72 hours
HT1080 = assay: as above; assay type: cell-based; conditions: combination with anti-DR5 IgM Mab A; HT1080, Connective tissue Fibrosarcoma; 72 hours
NUGC4 = assay: as above; assay type: cell-based; conditions: combination with anti-DR5 IgM Mab A; NUGC4, Gastric Adenocarcinoma; 72 hours
BXPC3 = assay: as above; assay type: cell-based; conditions: combination with anti-DR5 IgM Mab A; BXPC3, Pancreas adenocarcinoma; 72 hours
HT55 = assay: as above; assay type: cell-based; conditions: combination with anti-DR5 IgM Mab A; HT55, Colorectal Carcinoma; 72 hours
ASPC1 = assay: as above; assay type: cell-based; conditions: combination with anti-DR5 IgM Mab A; ASPC1, Pancreas Ductal adenocarcinoma; 72 hours
LOUNH91 = assay: as above; assay type: cell-based; conditions: combination with anti-DR5 IgM Mab A; LOUNH91, Lung Squamous cell carcinoma; 72 hours
NCIH508 = assay: as above; assay type: cell-based; conditions: combination with anti-DR5 IgM Mab A; NCIH508, Colorectal Caecum Adenocarcinoma; 72 hours
[5] = system: primary human hepatocytes; assay: as above; assay type: cell-based; conditions: combination with anti-DR5 IgM Mab A, Liver, 72 hours
MV411 = assay: as above; assay type: cell-based; conditions: combination with anti-DR5 IgM Mab A; MV411, Blood (Leukemia) Acute myelogenous leukemia; 72 hours
MOLM13 = assay: as above; assay type: cell-based; conditions: combination with anti-DR5 IgM Mab A; MOLM13, Blood (Leukemia) Acute myelogenous leukemia; 72 hours
Colo205 tumor cells = assay: Colo205 subcutaneous tumor model in NCr nude mice (Examples 2-5, 14); assay type: in vivo; conditions: study termination on day 100; paclitaxel 25 mg/kg i.v. 5 doses, alone or with Mab A 5 mg/kg i.v. 7 doses

SMILES | Average Bliss score (EBC-1) | Average Bliss score (HCT 116) | Average Bliss score (HT 1080) | Average Bliss score (OVCAR-4) | Average Bliss score (SK-MEL-5) | Average Bliss score (SW1353) | Average Bliss score (NCIH460) | Average Bliss score (HCT15) | Average Bliss score (NCIN87) | Average Bliss score (PANC1) | Average Bliss score (SNU5) | Average Bliss score (NCIH2228) | Average Bliss score (HT1080) | Average Bliss score (NUGC4) | Average Bliss score (BXPC3) | Average Bliss score (HT55) | Average Bliss score (ASPC1) | Average Bliss score (LOUNH91) | Average Bliss score (NCIH508) | other results
COc1ccccc1-c1nccc(COc2ccccc2C[C@H](Oc2ncnc3sc(-c4ccc(F)cc4)c(-c4ccc(OCCN5CCN(C)CC5)c(Cl)c4C)c23)C(=O)O)n1 (atropisomer, axis not shown) [MIK665, MIK665/S-64315] |  |  |  |  |  |  |  |  |  |  |  |  |  |  |  |  |  |  |  | Average Bliss score (Toledo): 6.7; single agent cytotoxicity (cell viability curves) (WSU-DLCL2; WSU-DLCL2 cells): complete cytotoxicity; Average Bliss score (WSU-DLCL2): 16; Average Bliss score (Karpas-422): 3.7; cytotoxicity in primary human hepatocytes [1]: causes cytotoxicity; single agent cytotoxicity (cell viability curves) (U-937 [2]): complete cytotoxicity; Average Bliss score (DOHH-2): 3.1; Average Bliss score (OCI-LY7): 3.5; Average Bliss score (U-937 [3]): 4.8
CN[C@@H](C)C(=O)N[C@H]1CN(S(=O)(=O)c2cccc(S(=O)(=O)N3CC[C@H]4CC[C@@H](C(=O)NC(c5ccccc5)c5ccccc5)N4C(=O)[C@@H](NC(=O)[C@H](C)NC)C3)c2)CC[C@H]2CC[C@@H](C(=O)NC(c3ccccc3)c3ccccc3)N2C1=O [APG-1387] | 47 | 34 | 38 | 10 | 7 | −3 |  |  |  |  |  |  |  |  |  |  |  |  |  | 
C[C@@H]1CN(CC(=O)N2CC(C)(C)c3nc(CO)c(Cc4ccc(F)cc4)cc32)[C@@H](CN2CCOC[C@H]2C)CN1 [ASTX660] | 17 | 29 | 20 | 9 | 11 | −2 |  |  |  |  |  |  |  |  |  |  |  |  |  | 
CN[C@@H](C)C(=O)N[C@H]1CN(C(=O)CC(C)C)CC[C@H]2CC[C@@H](C(=O)NC(c3ccccc3)c3ccccc3)N2C1=O [Debio 1143] | 23 | 19 | 12 | 3 | 4 | −1 |  |  |  |  |  |  |  |  |  |  |  |  |  | 
CN[C@@H](C)C(=O)N[C@H](C(=O)N1CCC[C@H]1C(=O)Nc1snnc1-c1ccccc1)C1CCCCC1 [GDC-0152, GDC-0152/RG-7419] |  |  |  |  |  |  |  |  |  |  |  |  |  |  |  |  |  |  |  | single agent cytotoxicity (cell viability curves) [4]: little to no cytotoxicity; single agent cytotoxicity (cell viability curves) (MDA-MB-231 tumor cells): little to no cytotoxicity
COc1cccc2c1C(=O)c1c(O)c3c(c(O)c1C2=O)C[C@@](O)(C(=O)CO)C[C@@H]3O[C@H]1C[C@H](N)[C@H](O)[C@H](C)O1 [doxorubicin, Doxorubicin] |  |  |  |  |  |  | 4 | 10 | 12 | 7.3 | 12 | 16 | 1.5 | 8.9 | 1.5 | 1.6 | −0.63 | 12 | 1.3 | Average Bliss score (UMUC3): 8.8; Average Bliss score [5]: 0.94; Average Bliss score (MV411): 7.1; Average Bliss score (MOLM13): 5.2
COc1cc([C@@H]2c3cc4c(cc3[C@@H](O[C@@H]3O[C@@H]5CO[C@@H](C)O[C@H]5[C@H](O)[C@H]3O)[C@H]3COC(=O)[C@H]23)OCO4)cc(OC)c1O [etoposide, Etoposide] |  |  |  |  |  |  | 3.6 | 15 | 17 | 10 | 3.6 | 14 | 3.6 | −2.3 | 2.2 | 5.1 | 5.2 | 16 | −0.99 | 
CC[C@H](Nc1ncnc2nc[nH]c12)c1nc2cccc(F)c2c(=O)n1-c1ccccc1 [idelalisib, Idelalisib] |  |  |  |  |  |  |  |  |  |  |  |  |  |  |  |  |  |  |  | Average Bliss score (Toledo): −1.6; Average Bliss score (WSU-DLCL2): −7.4; Average Bliss score (Karpas-422): −3.2; Average Bliss score (DOHH-2): −0.89; Average Bliss score (OCI-LY7): −1.8; Average Bliss score (U-937 [3]): 2.7
CC(=O)O[C@H]1C(=O)[C@@]2(C)[C@H]([C@H](OC(=O)c3ccccc3)[C@]3(O)C[C@H](OC(=O)[C@H](O)[C@@H](NC(=O)c4ccccc4)c4ccccc4)C(C)=C1C3(C)C)[C@]1(OC(C)=O)CO[C@@H]1C[C@@H]2O [paclitaxel, Paclitaxel] |  |  |  |  |  |  | 4.7 | 7.6 | 13 | 15 | 2.8 | 15 | 2.7 | 7 | 3.8 | 6.2 | 14 | 9.7 | 8.4 | Average Bliss score (UMUC3): 6.3; Average Bliss score [5]: 5.3; animals with no visible tumors (tumor-free) (Colo205 tumor cells): 2 out of 10
CC[C@]1(O)C[C@H]2CN(CCc3c([nH]c4ccccc34)[C@@](C(=O)OC)(c3cc4c(cc3OC)N(C=O)[C@H]3[C@@](O)(C(=O)OC)[C@H](OC(C)=O)[C@]5(CC)C=CCN6CC[C@]43[C@@H]65)C2)C1 [vincristine, Vincristine] |  |  |  |  |  |  |  |  |  |  |  |  |  |  |  |  |  |  |  | single agent cytotoxicity (cell viability curves) (U-937 [3]; U-937 cells): strong cytotoxicity
